Measured values as given in article PMC3006138, “Fexinidazole – A New Oral Nitroimidazole Drug Candidate Entering Clinical Development for the Treatment of Sleeping Sickness” (PLoS Neglected Tropical Diseases, 2010).

Key:
[1] = test system: monkey hepatocytes; assay: Hepatocyte intrinsic clearance and metabolite profile; type: in vitro ADME, cynomolgus monkey; details: fexinidazole 10 µM
Procedure: (§1) Fexinidazole was incubated with cryopreserved hepatocytes from male CD-1 mice, male Sprague Dawley rats, male beagle dogs, male cynomolgus monkeys, and from pooled white or African-American human donor samples (purchased commercially), at concentrations of 1 µM and 10 µM. […] The incubated samples were analyzed by LC-MS after extraction into acetonitrile.
A quality control analysis of fexinidazole was performed via 1H-NMR in DMSO and LC- […]
provided by the Swiss Tropical Institute (Basel, Switzerland).
(§2) Reagents and solvents were of analytical grade and obtained from Sigma-Aldrich (St. Louis, […]
Cryopreserved hepatocytes from the male CD1 mouse, lot CSI; male Sprague Dawley rat, lot LPL; male beagle dog, lot BWX; male cynomolgus monkey, lot EHH; and pooled human samples, lot MJI, were purchased from In Vitro Technologies Inc (Baltimore, Maryland, […]
5.4. In vitro Incubations
(§3) On the day of the experiment a 10 mM stock solution of fexinidazole in DMSO was prepared and, within 3 hours, aliquots of this freshly prepared solution, after suitable dilution, were added to the incubation matrix, to reach fexinidazole final concentrations of 1 and 10 µM. The final percentage of DMSO was 0.01% in the incubation samples for the […]
On the day of experiment, the cryopreserved hepatocytes were thawed following the detailed instructions provided by the supplier.
The number of viable cells was determined using a Trypan Blue exclusion method.
5.4.1. Intrinsic Clearance Study […]
µM with mouse, rat, dog, monkey and human hepatocytes (300000 cells/mL for the mouse and 1 million cells/mL for the other species) in a final incubation volume of 0.75 mL […]
Incubations were performed in duplicate in a 48-well plate under shaking. Sampling was performed using an automatic liquid handling system (Multiprobe II EX, Packard). At 0, 1, 5, 10, 15, 20, 30, 60 and 120 minutes, 50 µL aliquots of the incubates were taken, then 80 µL of ice-cold acetonitrile and 20 µL of 1 µM warfarin in acetonitrile (internal standard) were added, and samples centrifuged at 2000 rpm for 20 min. The supernatant was analyzed by LC-MS/MS. […]
the medium alone at t = 0 and 120 minutes.
For the determination of phase I and phase II activity of hepatocytes, 7-ethoxycoumarin (7-EC) 1 µM, and 7-hydroxycoumarin (7-HC) 30 µM were used as positive controls and incubated under the same conditions as fexinidazole. Aliquots of incubates were taken at 0, 10, 20, 30, 60 and 120 minutes and processed as fexinidazole samples.
5.4.2. Metabolite Profile Study
For metabolite profiling, fexinidazole was incubated at a concentration of 10 µM with mouse, rat, dog, monkey and human hepatocytes (300000 cells/mL for the mouse and 1 million cells/mL for the other species) in a final incubation volume of 2 mL Leibovitz L-15 […]
Aliquots of the incubation samples were taken at t = 0, 30 and 120 minutes; the metabolism was stopped by the addition of an equal volume of cold acetonitrile and the samples centrifuged at 1500 rpm for 20 min. The supernatant was stored at -20°C until analysis. Control incubations were performed with the compound in the medium alone […]
5.5. Analysis of Samples for Intrinsic Clearance Determination
(§4) The analysis of the samples for intrinsic clearance determination was performed by an LC-MS/MS method, using the following conditions:
(§5) HPLC Equipment and Conditions
HPLC system Agilent 1100 binary pump (Agilent, Palo Alto, USA)
Autosampler CTC Pal (Alfatech, San Jose, USA)
(§6) Analytical column Guard Column SB-C8 4.6 x 12.5 mm, 5 µm (Zorbax)
(§7) Column temperature ambient
(§8) Mobile phase A 10 mM ammonium formate pH 4.0: acetonitrile (95:5, v:v)
(§9) Mobile phase B 10 mM ammonium formate pH 4.0: acetonitrile (5:95, v:v) […]
(§10) Gradient conditions Step Total time (min) flow (µL/min) %A % B […]
MS Equipment and Conditions
Mass spectrometer API 4000 Triple Quadrupole (MDS-Sciex, Toronto, […]
Source Turbo Ion Spray (TIS)
Ion mode Positive for fexinidazole and 7-EC.
Negative for 7-HC, 7-HC sulphate and 7-HC glucuronide.

[2] = test system: hepatocytes from African American donors; assay: as above; type: in vitro ADME, human; details: fexinidazole 10 µM
Procedure: as §1
Fexinidazole sulfoxide, lot 1106-I-0170, 99.3% purity, and fexinidazole sulfone, lot 1106-I-0171, 99.9% purity, were provided by the Sponsor.
Cryopreserved hepatocytes of five single donors, lots EHI, REL, KSE […]
ZIJ and MRS, were purchased from In Vitro Technologies Inc (Baltimore, Maryland, USA).
The certificates of analysis are reported in Appendix 1.
as §2
7.5. In Vitro Incubations
as §3
The cryopreserved hepatocytes were thawed according to the supplier’s procedure and the number of viable cells was determined using the Trypan Blue exclusion method. Viabilities were 92% for lot EHI, 89% for lot REL, 82% for lot KSE, 86% for lot ZIJ and 86% for lot MRS in the intrinsic clearance study. In the metabolite profile study viabilities were 91% for lot EHI, 90% for lot REL, 85% for lot KSE, 84% for lot ZIJ and 87% for lot MRS.
Afterwards, the same amount of viable cells for each donor were pooled and used for the incubations of fexinidazole.
7.5.1. Intrinsic Clearance Study […]
µM with pooled human hepatocytes (1 million cells/mL) in a final incubation volume of 1 mL Leibovitz L-15 medium, at 37°C. Incubations were performed in duplicate in a 48-well plate under shaking. Sampling was performed using an automatic liquid handling system (Multiprobe II EX, Packard). At 0, 1, 5, 10, 15, 20, 30, 60 and 120 minutes, 50 µL aliquots of the incubates were taken, then 80 µL of ice-cold acetonitrile and 20 µL of 1 µM warfarin in acetonitrile (internal standard) were added, and samples centrifuged at 2000 rpm for 20 min. The supernatant was analyzed by LC-MS/MS. […]
The chemical stability of fexinidazole was checked by incubating the compound at 37°C in the medium alone at t = 0 and 120 minutes.
For the determination of phase I and phase II activities of hepatocytes, 7-ethoxycoumarin (7-ETC) 1 µM, and 7-hydroxycoumarin (7-HC) 30 µM were used as positive controls and incubated under the same conditions as fexinidazole. Aliquots of incubates were taken at 0, 1, 5, 10, 15, 20, 30, 60 and 120 minutes and processed as fexinidazole samples.
7.5.2. Metabolite Profile Study
For metabolite profiling, fexinidazole was incubated at a concentration of 10 µM with pooled human hepatocytes (1 million cells/mL) in a final incubation volume of 2 mL Leibovitz L-15 medium, at 37°C. Aliquots of the incubation samples were taken at t = 0, 30 and 120 minutes; the metabolism was stopped by the addition of an equal volume of cold acetonitrile and the samples centrifuged at 1100 rpm for 20 min. The supernatant was stored at -20°C until analysis. Control incubations were performed with the compound in the medium alone for 120 minutes.
7.6. Analysis of the Samples of Intrinsic Clearance Study
as §4, §5
HPLC system 1100 binary pump (Agilent, Palo Alto, USA)
Autosampler 2777 (Waters)
as §6, §7, §8, §9, §10

| SMILES | % of total drug related material ([1]; 30 min) [%] | % of total drug related material ([1]; 120 min) [%] | % of total drug related material ([2]; 120 min) [%] | % of total drug related material ([1]; t=0) [%] | % of total drug related material ([2]; 30 min) [%] | % of total drug related material ([2]; t=0) [%] |
| --- | --- | --- | --- | --- | --- | --- |
| Cn1c([N+](=O)[O-])cnc1COc1ccc(S(C)(=O)=O)cc1 [Fexinidazole sulfone] | 40 | 58 | 1 |  |  |  |
| Cn1c([N+](=O)[O-])cnc1COc1ccc([S+](C)[O-])cc1 (stereo not drawn) [Fexinidazole sulfoxide] | 60 | 42 | 98 | 47 | 98 | 23 |
| CSc1ccc(OCc2ncc([N+](=O)[O-])n2C)cc1 [Fexinidazole, 1-methyl-2-((p-(methylthio)phenoxy)methyl)-5-nitroimidazole] |  |  |  | 53 | 1 | 77 |
